Test results as given in patent US10906951B2, “Modified natural killer cells and natural killer cell lines having increased cytotoxicity” (ONK THERAPEUTICS LIMITED, priority 2015, dated 2021).

Key:
[1] = system: KHYG-1 cells; assay: KHYG-1 cell viability after CMA treatment; format: cell-based; details: 100 nM CMA or vehicle, FIG. 21
Experimental: (§1) (2) KHYG-1 cells (6 hours after electroporation, cultured in penicillin/streptomycin free RPMI1640 medium) were further treated with 100 nM CMA or equal volume of vehicle (DMSO) for 2 hours.

[2] = system: perforin; assay: CMA-induced reduction of perforin expression in KHYG-1 cells, flow cytometry; format: cell-based, human; details: 100 nM for 2 hours, FIG. 20
Experimental: Mouse anti-human perforin-AF647 (catalog number: 563576) was bought from BD pharmingen. Concanamycin A (catalog number: SC-202111) was bought from Santa Cruz Biotechnology. The stained cell samples were analyzed using a BD FACS Canto II.
(1) KHYG-1 cells were cultured in RPM11640 medium containing 10% FBS (fetal bovine serum), 2 mM L-glutamine, penicillin (100 U/mL)/streptomycin ([…]), and IL-2 (10 ng/mL).
as §1
(3) The cells were collected (1×10^6 cells/test) by centrifugation (1500 rpm×5 minutes) and the supernatant was aspirated.
(4) The cells were fixed in 4% paraformaldehyde in PBS solution at room temperature for 15 minutes.
(5) The cells were washed with 4 mL of FACS Buffer (PBS, 0.5-1% BSA, 0.1% sodium azide) twice.
(6) The cells were permeabilized with 1 mL of PBS/0.1% saponin buffer for 30 minutes at room temperature.
(7) The cells were washed with 4 mL of PBS/0.1% saponin buffer.
(8) The cells were re-suspended in 100 uL of PBS/0.1% saponin buffer, before adding 5 uL of the antibody to each tube and incubating for 30 minutes on ice. […]
(11) The cells were analyzed on the flow cytometer (BD FACS Canto II). […]

[3] = target: T1, decoy receptor DcR1 (Homo sapiens, UniProt O14798); details: surface plasmon resonance; WO 2009/077857; cited from earlier work
T1 sequence (O14798 26-236): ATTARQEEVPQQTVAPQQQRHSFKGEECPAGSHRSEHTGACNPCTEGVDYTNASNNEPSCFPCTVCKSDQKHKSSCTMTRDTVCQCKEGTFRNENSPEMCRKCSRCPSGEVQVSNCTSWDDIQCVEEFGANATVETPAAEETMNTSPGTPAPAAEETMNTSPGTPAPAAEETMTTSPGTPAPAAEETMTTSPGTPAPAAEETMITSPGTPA

[4] = target: DR4 (Homo sapiens, UniProt O00220); details: surface plasmon resonance; WO 2009/077857; cited from earlier work

| Compound | viability of KHYG-1 cells [1] | perforin expression level [2] | Kd [3] [nM] | Kd [4] [nM] |
| --- | --- | --- | --- | --- |
| C/C=C/[C@H]1O[C@@](O)([C@@H](C)[C@H](O)[C@H](C)[C@H]2OC(=O)/C(OC)=C/C(C)=C/[C@@H](C)[C@@H](O)[C@@H](CC)[C@@H](O)[C@H](C)C/C(C)=C/C=C/[C@@H]2OC)C[C@@H](O[C@H]2C[C@@H](O)[C@H](OC(N)=O)[C@@H](C)O2)[C@@H]1C [CMA, Concanamycin A] | no negative effects | significantly decreased | – | – |
| Wildtype TRAIL: wildtype TRAIL ligand; DNA sequence SEQ ID NO: 13 | – | – | > 20 | > 2 |
